Assay results taken from PubChem BioAssay AID2060494 (Molecular Pharmacology Branch, DTP, NCI, 2025).
Where “and” joins values, the source holds several entries; their conditions need not be identical. Equal values may be shown once.

Test system: 435261-313-R-J1-PDC complex spheroid viability
Test: Anticancer human tumor 435261-313-R-J1-PDC patient-derived colon adenocarcinoma cell line growth inhibition [GQUAD]
Conditions: for viability, T/C: stronger effect = lower value; active means viability on the fitted dose curve at most 10% of control; inactive means the rest
Description: DNA G-quadruplex Stabilizer Agents in Combinations in Complex Spheroids
A high-throughput screen of multi-cell type tumor spheroids was designed to identify active combinations of DNA G-quadruplex stabilizer agents and targeted small molecules. Complex spheroids include a stromal component modeled by human endothelial cells (HUVEC) and fibroblasts modeled by human mesenchymal stem cells (MSCs). The concentration ranges selected for each drug and investigational agent were based upon clinically achievable concentrations if the clinical Cmax of the agent was known.
Compounds. The drugs and investigational agents: pidnarulex (CX-5461; NSC782164), APTO-253 (NSC789042), BRACO-19 (NSC847499), peposertib (NSC802822), ceralasertib (NSC780249), elimusertib (NSC800525), camonsertib (NSC841442), AZD-1390 (NSC803789), olaparib (NSC753686), talazoparib (NSC767125), ART-558 (NSC835418), sotorasib (NSC818433), MRTX-1133 (NSC836407), SN-38 (NSC673596), topotecan (NSC609699), etoposide (NSC141540), doxorubicin (NSC123127), gemcitabine (NSC613327), 5-fluorouracil (NSC19893), paclitaxel (NSC125973), vemurafenib (NSC761431), panobinostat (NSC761190), R-306465 (JNJ-16241199; NSC773264), adavosertib (NSC754352), TP-3654 (NSC805149), carboplatin (NSC241240), KSQ-4279 (NSC840948), and staurosporine (NSC755774) were obtained from the National Cancer Institute (NCI) Developmental Therapeutics Program Chemical Repository (34). The FDA-approved anticancer drug set is available from the NCI Developmental Therapeutics Program. […] The stock solutions were prepared in dimethyl sulfoxide (DMSO, Sigma-Aldrich, St. Louis, MO, cat. D2650) at 800-fold the tested concentration and stored at -70 degrees C prior to their use. All drugs and investigational agents were tested over a range starting from a high concentration at or near the clinical Cmax and decreasing in half-log increments. If the clinical Cmax for an agent had not been determined, the highest concentration tested was 10 microM.
2.3 Cell Culture. All cells were maintained in an incubator at 37 degrees C and 5% CO2 with 95% humidity. The PDC lines were cultured according to standard operating procedures established by the NCI PDMR. All PDCs were thawed and cultured in Matrigel-coated flasks prepared with a working solution of 1X Ham's F-12 nutrient mix, without supplementation (Invitrogen, cat. 11765054), 100 U/mL penicillin-streptomycin (Invitrogen, cat. 15140122), and 2.5% Matrigel (Corning Inc., cat. 354248) for the first three passages. The 857933-349-R-J2-PDC line was cultured in 6C/Colon 1B media, which includes advanced DMEM/F-12 (Thermo Fisher Scientific, cat. 12634028), 10 mM HEPES (Thermo Fisher Scientific, cat. 15630080), 1X GlutaMAX supplement (Thermo Fisher Scientific, cat. 35050061), 0.1 mg/mL primocin (InvivoGen, cat. ant-pm-2), 10% defined fetal bovine serum, heat inactivated (HyClone Laboratories Inc., cat. SH30070.03HI), 50% L-WRN conditioned media (ATCC, cat. CRL-3276), 1.25 mM N-Acetyl-L-cysteine (Sigma-Aldrich, cat. A9165), 10 mM nicotinamide (Sigma-Aldrich, cat. N0636), 1X B-27 supplement (Thermo Fisher Scientific, cat. 17504044), 1X N-2 supplement (Thermo Fisher Scientific, cat. 17502048), 10 microM Y-27632 dihydrochloride (Tocris Bioscience, cat. 1254), and 50 ng/mL human EGF recombinant protein (Thermo Fisher Scientific, cat. PHG0311). The 485176-168-R4-J1-PDC line was cultured in Panc media, which includes all 6C/Colon 1B media components plus 100 ng/mL human FGF-10 (Thermo Fisher Scientific, cat. 100-26), 500 nM SB-431542 (Selleckchem, cat. S1067), and gastrin (Tocris, cat. 3006).
[…]
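Further: spheroids exposed to the agents for seven days before readout.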
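Wherever viability, T/C is given: percent of vehicle control viability with DMSO wells as 100%.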

CCc1c2c(nc3ccc(O)cc13)-c1cc3c(c(=O)n1C2)COC(=O)[C@]3(O)CC + Cc1[nH]c2ccc(F)cc2c1-c1nc2c3cccnc3c3ncccc3c2[nH]1
0.0212 µM: IC50 (curve of first compound, second compound 0.0316 µM)
0.0232 µM: IC50 (curve of first compound, second compound 0.1 µM)
0.0238 µM: IC50 (curve of first compound, second compound 0.316 µM)
< 0.000999 µM: IC50 (curve of first compound, second compound 1 µM) | IC50 (curve of first compound, second compound 3.16 µM) | IC50 (curve of first compound, second compound 10 µM)
inactive: viability, T/C (second compound 0.0316 µM, first compound 0.000999 µM) 119% | viability, T/C (second compound 0.0316 µM, first compound 0.00316 µM) 62.1% | viability, T/C (second compound 0.0316 µM, first compound 0.00999 µM) 67% | viability, T/C (second compound 0.0316 µM, first compound 0.0316 µM) 46.7% | viability, T/C (second compound 0.0316 µM, first compound 0.0999 µM) 51.3% | viability, T/C (second compound 0.0316 µM, first compound 0.316 µM) 33.8% | viability, T/C (second compound 0.1 µM, first compound 0.000999 µM) 93.9% | viability, T/C (second compound 0.1 µM, first compound 0.00316 µM) 64.4% | viability, T/C (second compound 0.1 µM, first compound 0.00999 µM) 58.5% | viability, T/C (second compound 0.1 µM, first compound 0.0316 µM) 49.4% | viability, T/C (second compound 0.1 µM, first compound 0.0999 µM) 46.5% | viability, T/C (second compound 0.1 µM, first compound 0.316 µM) 33.9% | viability, T/C (second compound 0.316 µM, first compound 0.000999 µM) 53.6% | viability, T/C (second compound 0.316 µM, first compound 0.00316 µM) 51.5% | viability, T/C (second compound 0.316 µM, first compound 0.00999 µM) 53.2% | viability, T/C (second compound 0.316 µM, first compound 0.0316 µM) 49.1% | viability, T/C (second compound 0.316 µM, first compound 0.0999 µM) 31.8% | viability, T/C (second compound 0.316 µM, first compound 0.316 µM) 29.7% | viability, T/C (second compound 1 µM, first compound 0.000999 µM) 45.6% | viability, T/C (second compound 1 µM, first compound 0.00316 µM) 55.6% | viability, T/C (second compound 1 µM, first compound 0.00999 µM) 32.9% | viability, T/C (second compound 1 µM, first compound 0.0316 µM) 34% | viability, T/C (second compound 1 µM, first compound 0.0999 µM) 33.1% | viability, T/C (second compound 1 µM, first compound 0.316 µM) 23.8% | viability, T/C (second compound 3.16 µM, first compound 0.000999 µM) 32.8% | viability, T/C (second compound 3.16 µM, first compound 0.00316 µM) 30.6% | viability, T/C (second compound 3.16 µM, first compound 0.00999 µM) 35.4% | viability, T/C (second compound 3.16 µM, first compound 0.0316 µM) 24% | viability, T/C (second compound 3.16 µM, first compound 0.0999 µM) 20.1% | viability, T/C (second compound 3.16 µM, first compound 0.316 µM) 21.2% | viability, T/C (second compound 10 µM, first compound 0.000999 µM) 22.2% | viability, T/C (second compound 10 µM, first compound 0.00316 µM) 18.8% | viability, T/C (second compound 10 µM, first compound 0.00999 µM) 25.3% | viability, T/C (second compound 10 µM, first compound 0.0316 µM) 16.7% | viability, T/C (second compound 10 µM, first compound 0.0999 µM) 16.1% | viability, T/C (second compound 10 µM, first compound 0.316 µM) 17.3%

O=C(c1cc(Cc2n[nH]c(=O)c3ccccc23)ccc1F)N1CCN(C(=O)C2CC2)CC1
> 10 µM: IC50 (curve of compound)
inactive: viability, T/C (compound 0.0316 µM) 104% and 96% | viability, T/C (compound 0.1 µM) 101% and 90.4% | viability, T/C (compound 0.316 µM) 80.2% and 95.2% | viability, T/C (compound 1 µM) 98.7% and 88.8% | viability, T/C (compound 3.16 µM) 82.4% and 119% | viability, T/C (compound 10 µM) 71.2% and 80.3%

Cc1[nH]c2ccccc2c1CCNCc1ccc(/C=C/C(=O)NO)cc1
active: viability, T/C (compound 0.316 µM) 7.05% and 6.56%
0.069 µM and 0.1 µM: IC50 (curve of compound)
inactive: viability, T/C (compound 0.000999 µM) 95.4% and 104% | viability, T/C (compound 0.00316 µM) 69.8% and 120% | viability, T/C (compound 0.00999 µM) 57.5% and 73.5% | viability, T/C (compound 0.0316 µM) 78.2% and 87.4% | viability, T/C (compound 0.0999 µM) 38% and 48.4%

Cc1cnc(CNC(=O)c2c(=O)c3ccc(N4CCCN(C)CC4)nc3n3c2sc2ccccc23)cn1
active: viability, T/C (compound 10 µM) 0.19% [middle of 7 runs]
inactive: viability, T/C (compound 0.0316 µM) 74.8% [middle of 10 runs] | viability, T/C (compound 0.1 µM) 64.1% [middle of 10 runs] | viability, T/C (compound 0.316 µM) 57.7% [middle of 10 runs] | viability, T/C (compound 1 µM) 46.2% [middle of 10 runs]
9.54% [middle of 10 runs]: viability, T/C (compound 3.16 µM)
